Measurements: patent US5066658A, “Substituted hydroxyureas” (Ortho Pharmaceutical Corporation, priority 1990, dated 1991)
pIC50: −log10 of the molar value.

Tests used:
[1] = system: Arachidonate-Induced Ear Edema; experiment: Arachidonic Acid-Induced Ear Edema Assay; format: in vivo; conditions: topical, mouse ear; for inhibition in vivo at 0.4 mg: 400 μg topically
Protocol: The topical anti-inflammatory activity of a compound was determined by its ability to inhibit an experimentally-induced inflammation in the mouse ear. Basically, four milligrams of arachidonic acid in acetone were applied to the dorsal surface of one ear with a microliter pipette. The mice were sacrificed at various times after application of arachidonic acid (one-half to six hours). A section of each ear was removed with a 7 mm round punch and weighed on an electronic or analytical balance. The difference in weight between treated and untreated ears was determined. Compounds to be evaluated for anti-inflammatory activity can be incorporated directly into the irritant mixture or at various times prior to or after application of arachidonic acid.
The degree of anti-inflammatory activity is shown in Table I, and is expressed in terms of the percent inhibition of ear weight increase.

[2] = system: Arachidonate-Induced Bronchospasm (cyclooxygenase); experiment: Pulmonary Mechanics Assay: arachidonate-induced bronchospasm without indomethacin (indicative of cyclooxygenase inhibition); format: in vivo, male Hartley guinea pigs; conditions: Cavia porcellus, guinea pig
Summary of the method: (§1)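 Urethane-anaesthetised (2 g/kg i.p.), succinylcholine-paralysed, ventilated male Hartley guinea pigs; compound given by various routes between i.v. arachidonic acid challenges (0.5-1.0 mg/kg; then 5-10 mg/kg after indomethacin 10 mg/kg i.v.). Cdyn and RL changes expressed as percent inhibition of control.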

5-lipoxygenase = molecular target: T1, 5-lipoxygenase (Rattus norvegicus, UniProt P12527); experiment: Inhibition of 5-lipoxygenase in cell-free homogenate of rat basophilic leukemia (RBL-1) cells; format: biochemical; conditions: RBL-1 cell-free homogenate; for inhibition at 3 µM: read-out: Inhibition of 5-Lipoxygenase, % Inh. @ 3 μM
T1 construct: The cell-free homogenate was prepared by sonication of the cells followed by centrifugation at 40,000 xg; endogenous in cells; host or cells: RBL-1 (rat basophilic leukemia) cells, 40,000 xg supernatant of the sonicate
T1 sequence (P12527 1-673): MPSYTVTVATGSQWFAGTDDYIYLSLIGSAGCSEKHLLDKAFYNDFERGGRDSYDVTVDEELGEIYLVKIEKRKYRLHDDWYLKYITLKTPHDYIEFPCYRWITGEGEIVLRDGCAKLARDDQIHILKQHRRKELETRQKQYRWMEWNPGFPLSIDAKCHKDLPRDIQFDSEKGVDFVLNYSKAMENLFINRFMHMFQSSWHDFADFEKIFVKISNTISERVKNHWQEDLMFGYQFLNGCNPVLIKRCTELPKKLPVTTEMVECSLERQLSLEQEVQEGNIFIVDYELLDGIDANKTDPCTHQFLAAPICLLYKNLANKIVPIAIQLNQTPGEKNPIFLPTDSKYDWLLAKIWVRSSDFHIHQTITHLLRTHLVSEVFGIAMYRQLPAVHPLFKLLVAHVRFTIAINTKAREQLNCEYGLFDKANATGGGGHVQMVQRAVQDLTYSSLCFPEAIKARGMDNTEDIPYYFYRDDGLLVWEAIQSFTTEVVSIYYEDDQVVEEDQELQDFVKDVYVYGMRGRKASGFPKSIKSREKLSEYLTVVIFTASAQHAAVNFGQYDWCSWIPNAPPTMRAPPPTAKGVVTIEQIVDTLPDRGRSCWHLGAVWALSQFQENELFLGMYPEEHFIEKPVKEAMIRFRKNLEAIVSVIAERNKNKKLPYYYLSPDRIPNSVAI
Summary of the method: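 40,000 xg supernatant of sonicated RBL-1 cell homogenate incubated with ^14C-arachidonic acid and CaCl2, with drug or vehicle. Products extracted after acidification, separated by TLC and quantified by scintillation counting; IC50 or percent inhibition at 3 μM reported.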

[3] = system: Arachidonate-Induced Bronchospasm (lipoxygenase); experiment: Pulmonary Mechanics Assay: arachidonate-induced bronchospasm with indomethacin (SRS-A response, indicative of lipoxygenase inhibition); format: in vivo, male Hartley guinea pigs; conditions: Cavia porcellus, guinea pig
Summary of the method: as §1

[4] = read-out: Inhibition of Arachidonate-Induced Ear Edema, % Inh. (μg topically)
[5] = IV dosing, read-out: Inhibition of Arachidonate-Induced Bronchospasm (IV Dosing), % Inh. without Indomethacin
[6] = IV dosing, read-out: Inhibition of Arachidonate-Induced Bronchospasm (IV Dosing), % Inh. with Indomethacin

Row | inhibition at 3 µM (5-lipoxygenase) | pIC50 (5-lipoxygenase) | SMILES | Inhibition of Arachidonate-Induced Ear Edema, ED50 [1] | inhibition in vivo at 0.4 mg [1, 4] | inhibition in vivo at 15 mg/kg [2, 5] | inhibition in vivo at 15 mg/kg [3, 6] | other results
1 | 94% | – | CCCCCCCCCCNC(=O)N(O)CCCC(=O)OCC [Example 19, N-Decyl-N'-[3-(ethoxycarbonyl)propyl]-N'-hydroxyurea] | 183 µg | 60% | – | – | inhibition in vivo at 50 mg/kg ([2]; ID dosing, 50 mg/kg, read-out: Inhibition of Arachidonate-Induced Bronchospasm (ID Dosing), % Inh. without Indomethacin): -89%; inhibition in vivo at 50 mg/kg ([3]; ID dosing, 50 mg/kg, read-out: Inhibition of Arachidonate-Induced Bronchospasm (ID Dosing), % Inh. with Indomethacin): 0%
2 | – | < 5.00 | CCCCCN1CCN(O)C1=O [Example 23, 1-pentyl-3-hydroxyimidazolidin-2-one] | – | – | 97% | 52% | inhibition in vivo at 0.2 mg ([1]; 200 μg topically, read-out: Inhibition of Arachidonate-Induced Ear Edema, % Inh. (μg topically)): 29%
3 | – | 6.13 | CCCCCCCCCCN1CCN(O)C1=O [Example 25, 1-Decyl-3-hydroxyimidazolidin-2-one] | 90 µg | 81% | – | – | inhibition in vivo at 20 mg/kg ([2]; IV dosing, 20 mg/kg, read-out: Inhibition of Arachidonate-Induced Bronchospasm (IV Dosing), % Inh. without Indomethacin): 85%; inhibition in vivo at 20 mg/kg ([3]; IV dosing, 20 mg/kg, read-out: Inhibition of Arachidonate-Induced Bronchospasm (IV Dosing), % Inh. with Indomethacin): 62%
4 | – | 5.37 | COc1ccc(CCNC(=O)N(C)O)cc1OC [Example 40, N-[2-(3,4-Dimethoxyphenyl)ethyl]N'-hydroxy-N'-methylurea] | – | 66% | 86% | 89% | inhibition in vivo at 25 mg/kg ([2]; ID dosing, 25 mg/kg, read-out: Inhibition of Arachidonate-Induced Bronchospasm (ID Dosing), % Inh. without Indomethacin): 69%; inhibition in vivo at 25 mg/kg ([3]; ID dosing, 25 mg/kg, read-out: Inhibition of Arachidonate-Induced Bronchospasm (ID Dosing), % Inh. with Indomethacin): 89%
5 | 24% | – | COc1cc2c(cc1OC)CN(C(=O)N(C)O)CC2 [Example 51, 6,7-Dimethoxy-N-hydroxy-N-methyl-1,2,3,4-tetrahydroisoquinoline-2-carboxamide] | – | – | < 20% | 60% | inhibition in vivo at 0.1 mg ([1]; 100 μg topically, read-out: Inhibition of Arachidonate-Induced Ear Edema, % Inh. (μg topically)): 28%
